Assay results from patent publication US9573987B2 (priority 2011, dated 2017).

Experiments:
IGF-1 receptor [1] = target: T1, IGF-1 receptor (Homo sapiens, UniProt P08069); assay: IGF-1 receptor binding assay (competition, scintillation proximity); parameters: expressed in transfected cells; plasma membrane fragments; details: Table 9
insulin receptor = insulin receptor (Homo sapiens, UniProt P06213); assay: Insulin receptor binding assay (competition, scintillation proximity); parameters: expressed in transfected cells; plasma membrane fragments; details: Table 9
IGF-1 receptor [2] = target: T1, IGF-1 receptor; assay: IGF-1 receptor phosphorylation assay, receptor transfected HEK293 cells; format: cell-based; parameters: expressed in transfected cells; host or cells: HEK293
Method: Color development was stopped 5 min later by adding 0.05 ml 1 N HCl. Absorbance at 450 nm was measured on Titertek Multiscan MCC340 (ThermoFisher, Pittsburgh, Pa.).

[3] = target: insulin subtype B receptor (IR-B) (Homo sapiens, UniProt P06213); assay: Insulin subtype B receptor phosphorylation, receptor transfected HEK293 cells; format: cell-based; parameters: expressed in transfected cells; host or cells: HEK293; details: read-out: Phosphorylation at Insulin Receptor Subtype B (IC50); Table 16B
Method: (§1) Color development was stopped 5 min later by adding 0.05 ml 1 N HCl. Absorbance at 450 nm was measured on Titertek Multiscan MCC340 (ThermoFisher, Pittsburgh, Pa.). […]

[4] = target: T2, insulin subtype A receptor (IR-A) (Homo sapiens, UniProt P06213); assay: Insulin subtype A receptor phosphorylation, receptor transfected HEK293 cells; format: cell-based; details: for IC50: read-out: Phosphorylation at Insulin Receptor Subtype A (IC50), Table 16A
T2 construct: expressed in transfected cells; host or cells: HEK293
Method: as §1

T1 sequence (P08069 31-736 limits assumed): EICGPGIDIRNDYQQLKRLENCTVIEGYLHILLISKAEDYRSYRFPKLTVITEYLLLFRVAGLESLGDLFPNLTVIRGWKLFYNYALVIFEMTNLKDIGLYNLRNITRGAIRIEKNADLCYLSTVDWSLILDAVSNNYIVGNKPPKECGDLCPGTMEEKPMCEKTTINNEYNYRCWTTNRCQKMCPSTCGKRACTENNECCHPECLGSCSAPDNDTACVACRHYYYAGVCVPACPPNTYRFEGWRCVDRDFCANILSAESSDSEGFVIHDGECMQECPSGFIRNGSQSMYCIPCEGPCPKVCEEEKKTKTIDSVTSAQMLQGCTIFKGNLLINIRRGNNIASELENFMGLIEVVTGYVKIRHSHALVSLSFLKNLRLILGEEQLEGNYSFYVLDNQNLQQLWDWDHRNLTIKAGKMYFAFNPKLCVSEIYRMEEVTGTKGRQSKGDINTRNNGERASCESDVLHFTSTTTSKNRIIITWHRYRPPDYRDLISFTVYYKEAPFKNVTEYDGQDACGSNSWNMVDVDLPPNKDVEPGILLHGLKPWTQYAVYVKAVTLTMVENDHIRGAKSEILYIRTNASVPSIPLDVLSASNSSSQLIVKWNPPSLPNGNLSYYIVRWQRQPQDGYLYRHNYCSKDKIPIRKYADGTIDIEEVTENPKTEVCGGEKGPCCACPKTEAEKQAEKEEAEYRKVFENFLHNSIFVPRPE
T1 sequence (P08069 741-1367 partner limits assumed): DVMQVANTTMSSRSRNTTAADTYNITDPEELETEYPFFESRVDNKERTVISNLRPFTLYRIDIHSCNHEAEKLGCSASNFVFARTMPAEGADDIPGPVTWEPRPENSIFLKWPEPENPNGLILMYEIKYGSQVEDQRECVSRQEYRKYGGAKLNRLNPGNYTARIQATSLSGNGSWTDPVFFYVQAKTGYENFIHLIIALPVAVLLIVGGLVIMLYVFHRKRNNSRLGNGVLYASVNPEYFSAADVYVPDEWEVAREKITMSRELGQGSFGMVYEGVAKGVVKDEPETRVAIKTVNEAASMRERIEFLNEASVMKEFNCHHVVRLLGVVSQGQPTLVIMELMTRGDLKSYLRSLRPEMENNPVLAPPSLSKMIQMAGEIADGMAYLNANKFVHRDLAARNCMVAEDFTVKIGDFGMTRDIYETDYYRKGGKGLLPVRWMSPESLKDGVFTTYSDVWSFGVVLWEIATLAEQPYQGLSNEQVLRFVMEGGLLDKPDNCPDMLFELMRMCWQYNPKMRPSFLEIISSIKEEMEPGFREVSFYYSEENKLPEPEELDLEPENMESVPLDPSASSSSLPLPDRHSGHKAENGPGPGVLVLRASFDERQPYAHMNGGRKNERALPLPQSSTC

## CC[C@H](C)[C@H](NC(=O)CN)C(=O)N[C@H](C(=O)N[C@@H](CC(=O)O)C(=O)N[C@@H](CCC(=O)O)C(=O)N[C@H]1CSSC[C@@H]2NC(=O)[C@H](CO)NC(=O)[C@H](C)NC(=O)[C@H](Cc3c[nH]cn3)NC(=O)[C@H](CSSC[C@H](NC(=O)[C@H](CC(C)C)NC(=O)[C@H](Cc3c[nH]cn3)NC(=O)[C@H](CCC(=O)O)NC(=O)[C@@H]3CCCN3C(=O)CN)C(=O)NCC(=O)N[C@@H](C)C(=O)N[C@@H](CC(=O)O)C(=O)N[C@@H](CC(C)C)C(=O)N[C@@H](C(C)C)C(=O)N[C@@H](CC(=O)O)C(=O)N[C@@H](C)C(=O)N[C@@H](CC(C)C)C(=O)N[C@@H](Cc3ccc(O)cc3)C(=O)N[C@@H](CC(C)C)C(=O)N[C@@H](C(C)C)C(=O)N[C@H](C(=O)NCC(=O)N[C@@H](CC(=O)O)C(=O)N[C@@H](C)C(=O)NCC(=O)N[C@@H](Cc3ccccc3)C(=O)N[C@@H](Cc3ccc(O)cc3)C(N)=O)CSSC[C@@H](C(=O)N[C@@H](CC(N)=O)C(=O)O)NC(=O)[C@H](Cc3ccc(O)cc3)NC(=O)[C@H](CCSC)NC(=O)[C@H](CCC(=O)O)NC(=O)[C@H](CC(C)C)NC(=O)[C@H](CCCNC(=N)N)NC(=O)[C@H](CCCNC(=N)N)NC(=O)[C@H](CC(C)C)NC(=O)[C@H](CC(=O)O)NC2=O)NC1=O)C(C)C
IGF-1 receptor [1]
  IGF-1 Receptor % IGF-1 (in test): 2.3%
Insulin receptor
  Insulin Receptor % insulin (in test): 1171.4%
IGF-1 receptor [2]
  EC50: 11.3 nM
IGF-1 receptor [2]; Table 10
  IGF-1 Receptor % IGF: 7.7%

## CC[C@H](C)[C@H](NC(=O)CN)C(=O)N[C@H](C(=O)N[C@@H](CC(=O)O)C(=O)N[C@@H](CCC(=O)O)C(=O)N[C@H]1CSSC[C@@H]2NC(=O)[C@H](CO)NC(=O)[C@H](C)NC(=O)[C@H](Cc3c[nH]cn3)NC(=O)[C@H](CSSC[C@H](NC(=O)[C@H](CC(C)C)NC(=O)[C@H](Cc3c[nH]cn3)NC(=O)[C@H](CCC(=O)O)NC(=O)[C@@H]3CCCN3C(=O)CN)C(=O)NCC(=O)N[C@@H](C)C(=O)N[C@@H](CC(=O)O)C(=O)N[C@@H](CC(C)C)C(=O)N[C@@H](C(C)C)C(=O)N[C@@H](CC(=O)O)C(=O)N[C@@H](C)C(=O)N[C@@H](CC(C)C)C(=O)N[C@@H](Cc3ccc(O)cc3)C(=O)N[C@@H](CC(C)C)C(=O)N[C@@H](C(C)C)C(=O)N[C@H](C(=O)NCC(=O)N[C@@H](CC(=O)O)C(=O)N[C@@H](C)C(=O)NCC(=O)N[C@@H](Cc3ccccc3)C(=O)N[C@@H](Cc3ccc(O)cc3)C(N)=O)CSSC[C@@H](C(=O)N[C@@H](CC(N)=O)C(=O)O)NC(=O)[C@H](Cc3ccc(O)cc3)NC(=O)[C@H](CC[S+](C)[O-])NC(=O)[C@H](CCC(=O)O)NC(=O)[C@H](CC(C)C)NC(=O)[C@H](CCCNC(=N)N)NC(=O)[C@H](CCCNC(=N)N)NC(=O)[C@H](CC(C)C)NC(=O)[C@H](CC(=O)O)NC2=O)NC1=O)C(C)C (stereo partly shown)
Insulin receptor
  Insulin Receptor % insulin (in test): 400.7%

## CC[C@H](C)[C@H](NC(=O)CN)C(=O)N[C@H](C(=O)N[C@@H](CC(=O)O)C(=O)N[C@@H](CCC(=O)O)C(=O)N[C@H]1CSSC[C@@H]2NC(=O)[C@H](CO)NC(=O)[C@H](CCCNC(=N)N)NC(=O)[C@H](Cc3ccccc3)NC(=O)[C@H](CSSC[C@H](NC(=O)[C@H](CC(C)C)NC(=O)[C@@H](NC(=O)[C@H](CCC(=O)O)NC(=O)[C@@H]3CCCN3C(=O)CN)[C@@H](C)O)C(=O)NCC(=O)N[C@@H](C)C(=O)N[C@@H](CCC(=O)O)C(=O)N[C@@H](CC(C)C)C(=O)N[C@@H](C(C)C)C(=O)N[C@@H](CC(=O)O)C(=O)N[C@@H](C)C(=O)N[C@@H](CC(C)C)C(=O)N[C@@H](Cc3ccc(O)cc3)C(=O)N[C@@H](CC(C)C)C(=O)N[C@@H](C(C)C)C(=O)N[C@H](C(=O)NCC(=O)N[C@@H](CC(=O)O)C(=O)N[C@@H](CCCNC(=N)N)C(=O)NCC(=O)N[C@@H](Cc3ccccc3)C(=O)N[C@@H](Cc3ccc(O)cc3)C(N)=O)CSSC[C@@H](C(=O)N[C@@H](C)C(N)=O)NC(=O)[C@H](Cc3ccc(O)cc3)NC(=O)[C@H](CCSC)NC(=O)[C@H](CCC(=O)O)NC(=O)[C@H](CC(C)C)NC(=O)[C@H](CCCNC(=N)N)NC(=O)[C@H](CCCNC(=N)N)NC(=O)[C@H](CC(C)C)NC(=O)[C@H](CC(=O)O)NC2=O)NC1=O)C(C)C [IGF-1 A:B (E10Y16L17) DPI]
IGF-1 receptor [1]
  IGF-1 Receptor % IGF-1 (in test): 3.3%

## CC[C@H](C)[C@H](NC(=O)CN)C(=O)N[C@H](C(=O)N[C@@H](CC(=O)O)C(=O)N[C@@H](CCC(=O)O)C(=O)N[C@H]1CSSC[C@@H]2NC(=O)[C@H](CO)NC(=O)[C@H](CCCNC(=N)N)NC(=O)[C@H](Cc3ccccc3)NC(=O)[C@H](CSSC[C@H](NC(=O)[C@H](CC(C)C)NC(=O)[C@H](Cc3c[nH]cn3)NC(=O)[C@H](CCC(=O)O)NC(=O)[C@@H]3CCCN3C(=O)CN)C(=O)NCC(=O)N[C@@H](C)C(=O)N[C@@H](CC(=O)O)C(=O)N[C@@H](CC(C)C)C(=O)N[C@@H](C(C)C)C(=O)N[C@@H](CC(=O)O)C(=O)N[C@@H](C)C(=O)N[C@@H](CC(C)C)C(=O)N[C@@H](Cc3ccc(O)cc3)C(=O)N[C@@H](CC(C)C)C(=O)N[C@@H](C(C)C)C(=O)N[C@H](C(=O)NCC(=O)N[C@@H](CC(=O)O)C(=O)N[C@@H](CCCNC(=N)N)C(=O)NCC(=O)N[C@@H](Cc3ccccc3)C(=O)N[C@@H](Cc3ccc(O)cc3)C(N)=O)CSSC[C@@H](C(=O)N[C@@H](C)C(N)=O)NC(=O)[C@H](Cc3ccc(O)cc3)NC(=O)[C@H](CC[S+](C)[O-])NC(=O)[C@H](CCC(=O)O)NC(=O)[C@H](CC(C)C)NC(=O)[C@H](CCCNC(=N)N)NC(=O)[C@H](CCCNC(=N)N)NC(=O)[C@H](CC(C)C)NC(=O)[C@H](CC(=O)O)NC2=O)NC1=O)C(C)C (stereo partly shown) [IGF-1 A:B (H5D10Y16L17) (S═O)DPI]
Insulin receptor
  Insulin Receptor % insulin (in test): 316.0%

## CC[C@H](C)[C@H](NC(=O)CN)C(=O)N[C@H](C(=O)N[C@@H](CC(=O)O)C(=O)N[C@@H](CCC(=O)O)C(=O)N[C@H]1CSSC[C@@H]2NC(=O)[C@H](CO)NC(=O)[C@H](CCCNC(=N)N)NC(=O)[C@H](Cc3ccccc3)NC(=O)[C@H](CSSC[C@H](NC(=O)[C@H](CC(C)C)NC(=O)[C@@H](NC(=O)[C@H](CCC(=O)O)NC(=O)[C@@H]3CCCN3C(=O)CN)[C@@H](C)O)C(=O)NCC(=O)N[C@@H](C)C(=O)N[C@@H](CCC(=O)O)C(=O)N[C@@H](CC(C)C)C(=O)N[C@@H](C(C)C)C(=O)N[C@@H](CC(=O)O)C(=O)N[C@@H](C)C(=O)N[C@@H](CC(C)C)C(=O)N[C@@H](CCC(N)=O)C(=O)N[C@@H](Cc3ccccc3)C(=O)N[C@@H](C(C)C)C(=O)N[C@H](C(=O)NCC(=O)N[C@@H](CC(=O)O)C(=O)N[C@@H](CCCNC(=N)N)C(=O)NCC(=O)N[C@@H](Cc3ccccc3)C(=O)N[C@@H](Cc3ccc(O)cc3)C(=O)N[C@@H](Cc3ccccc3)C(=O)N[C@@H](CC(N)=O)C(=O)N[C@@H](CCCCN)C(=O)N3CCC[C@H]3C(=O)N[C@H](C(N)=O)[C@@H](C)O)CSSC[C@@H](C(=O)N[C@@H](C)C(N)=O)NC(=O)[C@H](Cc3ccc(O)cc3)NC(=O)[C@H](CCSC)NC(=O)[C@H](CCC(=O)O)NC(=O)[C@H](CC(C)C)NC(=O)[C@H](CCCNC(=N)N)NC(=O)[C@H](CCCNC(=N)N)NC(=O)[C@H](CC(C)C)NC(=O)[C@H](CC(=O)O)NC2=O)NC1=O)C(C)C [IGF-1 A:B]
Insulin receptor
  Insulin Receptor % insulin (in test): 5.8%
  Insulin Receptor % native insulin activity (0.6 nM): 5.8%

## DP20 random: CTP linker sequence randomized; linking peptide PPRPPQSASPPDLSPLSGTPSRPSLS; SEQ ID NO: 69 (listed as Homo sapiens)
[3]
  IC50: 2.46 nM
[4]
  IC50: 8.08 nM

B1: DP-20, C^0: DP20 structure with the native proinsulin C peptide as the linking peptide (protein)
chain: GEEEEEKGPEHLCGAHLVDALYLVCGDRGFYRREAEDLQVGQVELGGGPGAGSLQPLALEGSLQRKGIVDECCHRSCDLRRLENYCN
[3]
  IC50: 35.4 nM
[4]
  IC50: 84.3 nM

B2: DP20, S2A: CTP linking peptide wherein the serines have been replaced with alanine (SEQ ID NO: 80) (protein, listed as Homo sapiens)
chain: GEEEEEKGPEHLCGAHLVDALYLVCGDRGFYAAAARAPPPALPAPARLPGPADTPILPQKGIVDECCHRSCDLRRLENYCN
[3]
  IC50: 7.44 nM
[4]
  IC50: 11.8 nM

B3: DP20 P to A: CTP linking peptide wherein the prolines have been replaced with alanine (SEQ ID NO: 70) (protein, listed as Homo sapiens)
chain: GEEEEEKGPEHLCGAHLVDALYLVCGDRGFYSSSSRAAAASLASASRLAGASDTAILAQKGIVDECCHRSCDLRRLENYCN
[4]; FIGS. 21, 23
  in vitro phosphorylation activity at the insulin subtype A receptor (result in words): appreciable activity at the insulin receptor, equivalent to that of native IGF-1
